Results published in patent publication US6413228B1, “Devices, methods and systems for collecting material from a breast duct” (Pro Duct Health, Inc., priority 1998, dated 2002).

Tested on: breast ducts of live rabbits
Assay: Mannitol solution introduced into breast ducts of live rabbit: ductal fluid collection
Assay type: in vivo, New Zealand rabbit
Conditions: for recovery (out-flow liquid collected from duct): about an hour after injection
Method: The objective of these experiments was to test the effects of the introduction of a solution containing mannitol on the secretion of fluid from the breast ducts of live rabbits. New Zealand rabbit #3242, female, from Kraelik Farm in California weighing 4.1 kg was used. The rabbit was anesthetized by injection of 200 mg of ketamine and 40 mg of Zylazine. A second injection of 100 mg of ketamine and 20 mg of xylazine was made 2 hours later to maintain the rabbit in a deep plane of anesthesia. The thorax and abdomen of the rabbit was shaved to expose the breasts and nipples.
A single lumen blue color catheter (O.D. 0.23″ ID 0.017; O.D. at the tip 0.011″-0.012″) was inserted into a duct in each nipple. Three nipples were tested, and 2 ducts per nipple were accessed with a catheter. The nipples were identified A, B, and C.
A duct on nipple A was injected with 0.20 ml of a 12.5% solution of D-Mannitol in H2O (available from Sigma Chemicals, St. Louis, Mo. cat# M-9546 lot 6710402: C6H14O6 FW 182.2) with a single catheter. The control duct on nipple A was injected with 0.20 ml of phosphate buffered saline (PBS). A microfuge tube was attached to the end of each catheter to collect out flow liquid. Ten minutes later 0.2 ml of a 12.5% solution of D-Mannitol in H2O was injected into the first duct and the second duct was injected with 0.20 ml of phosphate buffered saline, for a total volume injected in each duct of 0.40 ml.
A duct on nipple B was injected with 0.5 ml of a 12.5% solution of D-Mannitol in H2O with a single catheter. The control duct on nipple B was injected with […] of phosphate buffered saline (PBS). A microfuge tube was attached to the end of each catheter to collect out-flow liquid.
A duct on nipple C was injected with 0.7 ml of a 12.5% solution of D-Mannitol in H2O with a single catheter. The control duct on nipple C was injected with 0.70 ml of phosphate buffered saline (PBS). A microfuge tube was attached to the end of each catheter to collect out flow liquid.
About an hour after the fluid containing mannitol or PBS was injected into the ducts via the catheters, the microfuge tubes were checked for whether any fluid was returned.
Davidson green dye (1 ul) was added to each microfuge tube containing fluid for the purpose of taking a picture. The rabbit was euthanized by IV injection of supersaturated KC1. PBS (1.5 ul) was added to each collection. The cells were spun onto Shandon coated slide using megafunnel and cytospin-3 machine (Shandon, Inc. located in Pittsburgh, Pa.) at a speed of 1500/per minute for 15 minutes. The cells were fixed on the slide in 95% ethanol for 10 minutes. The cells were stained using Hematoxylin and Eosin (HE) method of cytology of collected fluid.

## OC[C@@H](O)[C@@H](O)[C@H](O)[C@H](O)CO [mannitol, D-Mannitol]
Ducts injected with mannitol solution (PBS control: 1 out of 3)
  ducts from which fluid can be collected: three out of three
Nipple A, duct A1, 0.4 ml mannitol 12.5% in H2O injected intraductally (2 x 0.2 ml)
  recovery (out-flow liquid collected from duct): 310 ul liquid
Nipple B, duct B1, 0.5 ml mannitol 12.5% in H2O injected intraductally
  recovery (out-flow liquid collected from duct): 490 ul liquid
Nipple C, duct C1, 0.7 ml mannitol 12.5% in H2O injected intraductally
  recovery (out-flow liquid collected from duct): 280 ul liquid
